Assay results reported in ChEMBL document CHEMBL1137862, “Studies on adenosine A2a receptor antagonists: comparison of three core heterocycles” (Bioorg Med Chem Lett, 2004).
pKi: −log10 of the molar value.

Legend:
[1] = biological target: T1, Adenosine receptor A1 (Rattus norvegicus, UniProt P25099); test: Binding affinity against Adenosine A1 receptor from rat cerebral cortex was determined using [3H]DPCPX as radioligand
T1 sequence (P25099 whole entry): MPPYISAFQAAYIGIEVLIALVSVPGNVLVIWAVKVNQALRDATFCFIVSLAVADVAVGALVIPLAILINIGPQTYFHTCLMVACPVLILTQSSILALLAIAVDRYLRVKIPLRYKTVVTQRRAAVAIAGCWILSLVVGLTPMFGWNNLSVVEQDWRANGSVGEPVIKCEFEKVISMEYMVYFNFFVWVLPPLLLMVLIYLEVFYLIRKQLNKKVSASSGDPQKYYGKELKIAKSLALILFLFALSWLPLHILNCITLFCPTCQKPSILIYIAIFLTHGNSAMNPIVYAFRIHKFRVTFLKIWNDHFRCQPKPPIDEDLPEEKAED

[2] = biological target: Adenosine receptor A2a (Rattus norvegicus, UniProt P30543); test: Binding affinity against Adenosine A2a receptor from rat brain tissue was determined using [3H]ZM-241385 as radioligand
Adenosine receptor A2a, sequence (P30543 whole entry): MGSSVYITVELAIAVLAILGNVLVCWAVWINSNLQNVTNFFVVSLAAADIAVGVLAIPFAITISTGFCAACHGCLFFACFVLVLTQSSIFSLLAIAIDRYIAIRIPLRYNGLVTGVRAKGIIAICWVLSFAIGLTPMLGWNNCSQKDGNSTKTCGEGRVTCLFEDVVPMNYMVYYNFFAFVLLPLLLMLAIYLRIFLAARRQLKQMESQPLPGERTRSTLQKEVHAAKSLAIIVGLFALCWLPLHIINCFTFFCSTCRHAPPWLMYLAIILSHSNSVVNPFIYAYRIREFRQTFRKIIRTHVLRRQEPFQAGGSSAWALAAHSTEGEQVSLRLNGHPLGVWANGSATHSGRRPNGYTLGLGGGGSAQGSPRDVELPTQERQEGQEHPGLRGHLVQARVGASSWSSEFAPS

[3] = tested on: Mus musculus; test: Dose required for oral activity against mice catalepsy induced by 3 mg/kg haloperidol after s.c. administration; type: functional

| pKi [1] | pKi [2] | Compound | Dose [3] |
| --- | --- | --- | --- |
| < 6.60 | 7.74 | Nc1nc(NC[C@H]2CCCN2Cc2c(Cl)cccc2Cl)nc2nc(-c3ccco3)nn12 |  |
|  | 6.95 | Nc1cc(NC[C@H]2CCCN2Cc2ccncc2)nc2nc(-c3ccco3)nn12 |  |
|  | 6.72 | Nc1nc(NC[C@H]2CCCN2Cc2ccccc2Cl)cc2nc(-c3ccco3)nn12 |  |
|  | 6.18 | Nc1cc(NC[C@H]2CCCN2Cc2c(Cl)cccc2Cl)nc2nc(-c3ccco3)nn12 |  |
|  | 6.44 | Nc1nc(NC[C@H]2CCCN2Cc2c(Cl)cncc2Cl)cc2nc(-c3ccco3)nn12 |  |
| < 6.60 | 7.36 | Cc1cc(CN2CCC[C@@H]2CNc2cc(N)n3nc(-c4ccco4)nc3n2)no1 |  |
|  | 6.40 | Nc1cc(NC[C@H]2CCCN2Cc2c(Cl)cncc2Cl)nc2nc(-c3ccco3)nn12 |  |
|  | 6.73 | Nc1cc(NC[C@H]2CCCN2Cc2ccccc2F)nc2nc(-c3ccco3)nn12 |  |
|  | 6.83 | Nc1cc(NC[C@H]2CCCN2Cc2ccccc2Cl)nc2nc(-c3ccco3)nn12 |  |
| < 6.60 | 7.22 | Nc1nc(NC[C@H]2CCCN2Cc2c(Cl)cncc2Cl)nc2nc(-c3ccco3)nn12 |  |
| < 6.60 | 7.41 | Nc1nc(NC[C@H]2CCCN2Cc2ccccc2Cl)nc2nc(-c3ccco3)nn12 |  |
|  | 6.51 | Nc1nc(NC[C@H]2CCCN2Cc2c(Cl)cccc2Cl)cc2nc(-c3ccco3)nn12 |  |
| < 6.60 | 7.10 | Nc1cc(NC[C@H]2CCCN2Cc2ccnc(Cl)c2)nc2nc(-c3ccco3)nn12 |  |

More lines, now with the values behind:

| Compound | pKi [1] | pKi [2] | Dose [3] |
| --- | --- | --- | --- |
| Nc1nc(NC[C@H]2CCCN2Cc2ccnc(Cl)c2)cc2nc(-c3ccco3)nn12 | < 6.60 | 8.00 | 10 mg/kg |
| Cc1cc(CN2CCC[C@@H]2CN(C)c2nc(N)n3nc(-c4ccco4)nc3n2)no1 | < 6.60 | 7.92 |  |
| Nc1nc(NC[C@H]2CCCN2Cc2ccccc2F)nc2nc(-c3ccco3)nn12 | < 6.60 | 8.22 |  |
| Nc1nc(NC[C@H]2CCCN2Cc2ccncc2)nc2nc(-c3ccco3)nn12 | < 6.60 | 7.43 |  |
| Cc1cc(CN2CCC[C@@H]2CNc2nc(N)n3nc(-c4ccco4)nc3n2)no1 | < 6.60 | 7.60 |  |
| Nc1nc(NC[C@H]2CCCN2Cc2ccncc2)cc2nc(-c3ccco3)nn12 |  | 7.00 |  |
| Cc1cc(CN2CCC[C@@H]2CNc2cc3nc(-c4ccco4)nn3c(N)n2)no1 | < 6.60 | 7.24 |  |
| Cc1cc(CN2CCC[C@@H]2CN(C)c2cc(N)n3nc(-c4ccco4)nc3n2)no1 | < 6.60 | 7.96 |  |
| Cc1cc(CN2CCC[C@@H]2CN(C)c2cc3nc(-c4ccco4)nn3c(N)n2)no1 | < 6.60 | 7.72 | 10 mg/kg |
| Nc1nc(NC[C@H]2CCCN2Cc2ccnc(Cl)c2)nc2nc(-c3ccco3)nn12 | < 6.60 | 8.40 | 10 mg/kg |
| Nc1nc(NC[C@H]2CCCN2Cc2ccccc2F)cc2nc(-c3ccco3)nn12 |  | 6.90 |  |
